Values joined by “and” are separate entries in the source; they are usually repeats but may differ in a detail not shown here. Equal entries are not always repeated.
What was measured:
[1] = molecular target: T1, human Branched Chain Amino Acid Aminotransferase cytosolic form (hBCATc) (Homo sapiens, UniProt P54687); test: In vitro coupled enzyme assay (glutamate dehydrogenase, NADH formation), human BCATc; assay type: biochemical; settings: recombinant human BCATc, 37° C., 25 mM phosphate buffer pH 7.8; several values in a cell = repeat determinations; read-out: RhBCATc
T1 construct: made in house; host or cells: E. coli BL21(DE3)
T1 sequence (P54687 1-386): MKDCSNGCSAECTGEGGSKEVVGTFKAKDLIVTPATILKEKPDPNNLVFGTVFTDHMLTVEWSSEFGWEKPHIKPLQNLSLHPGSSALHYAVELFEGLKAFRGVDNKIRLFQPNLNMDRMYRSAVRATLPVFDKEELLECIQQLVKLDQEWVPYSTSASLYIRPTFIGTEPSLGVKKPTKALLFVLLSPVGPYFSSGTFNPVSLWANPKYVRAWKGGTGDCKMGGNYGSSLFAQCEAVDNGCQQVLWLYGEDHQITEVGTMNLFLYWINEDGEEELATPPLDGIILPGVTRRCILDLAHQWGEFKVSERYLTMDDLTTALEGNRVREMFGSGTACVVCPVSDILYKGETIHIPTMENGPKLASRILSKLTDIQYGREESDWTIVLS
How it was run: (§1)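 At 37 °C in 25 mM phosphate pH 7.8 with 2 mM DTT, 1.25 μg His-tag-purified E. coli-expressed BCAT transaminated 750 μM L-leucine with 500 μM α-ketoglutarate and 10 μM PLP. Glutamate was coupled via glutamate dehydrogenase (1 mM NAD+, 4 mM ADP) to NADH formation at 340 nm. Compounds were added in DMSO up to 5% v/v.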

[2] = molecular target: T2, rat BCAT cytosolic form (Rattus norvegicus, UniProt P54690); test: In vitro coupled enzyme assay (glutamate dehydrogenase, NADH formation), rat BCATc; assay type: biochemical; settings: recombinant rat BCATc, 37° C., 25 mM phosphate buffer pH 7.8; several values in a cell = repeat determinations; read-out: RrBCATc
T2 construct: made in house; host or cells: E. coli BL21(DE3)
T2 sequence (P54690 1-411): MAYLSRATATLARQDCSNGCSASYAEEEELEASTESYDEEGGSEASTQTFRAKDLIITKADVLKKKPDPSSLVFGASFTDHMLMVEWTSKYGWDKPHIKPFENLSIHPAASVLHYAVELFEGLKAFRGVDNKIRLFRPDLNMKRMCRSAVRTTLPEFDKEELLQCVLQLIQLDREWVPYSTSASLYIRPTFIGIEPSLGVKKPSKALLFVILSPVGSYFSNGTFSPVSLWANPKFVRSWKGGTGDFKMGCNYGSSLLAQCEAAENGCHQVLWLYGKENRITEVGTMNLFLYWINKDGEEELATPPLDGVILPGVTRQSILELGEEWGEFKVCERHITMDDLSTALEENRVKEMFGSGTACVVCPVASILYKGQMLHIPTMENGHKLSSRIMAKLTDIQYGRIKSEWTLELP
How it was run: as §1

IC50 [1] | melting point [°C] | IC50 [2] | SMILES
2.6 µM | > 250 | 0.13 µM | O=C(NNS(=O)(=O)c1ccccc1)c1ccc2[nH]c3c(c2c1)CCCC3 [Example 2, 2,3,4,9-Tetrahydro-1H-carbazole-6-carboxylic acid 2-(phenylsulfonyl)hydrazide]
5.76 µM and 3 µM | 164 to 165 | 0.86 µM and 0.46 µM and 0.53 µM | COc1cccc2cc(C(=O)NNS(=O)(=O)c3ccccc3)oc12 [Example 5, 7-Methoxy-2-benzofurancarboxylic acid 2-(phenylsulfonyl)hydrazide]
3 µM and 3.1 µM | 208 to 209 | 0.39 µM and 0.2 µM | O=C(NNS(=O)(=O)c1cccc(Cl)c1)c1ccc2oc3ccccc3c2c1 [Example 16, 2-Dibenofurancarboxylic acid 2-[(3-chlorophenyl)sulfonyl]hydrazide]
11.4 µM | 235 to 236 | 1.1 µM and 0.54 µM | O=C(NNS(=O)(=O)c1ccccc1Cl)c1ccc2oc3ccccc3c2c1 [Example 17, 2-Dibenzofurancarboxylic acid 2-[(2-chlorophenyl)sulfonyl]hydrazide]
7.9 µM | 231 to 233 | 0.53 µM and 0.4 µM | O=C(NNS(=O)(=O)c1cc(Cl)cc(Cl)c1)c1ccc2oc3ccccc3c2c1 [Example 18, Dibenzofuran-2-carboxylic acid 2-(3,5-dichlorophenylsulfonyl)hydrazide]
6.7 µM | 192 to 194 | 0.22 µM | Cc1c(Cl)cccc1S(=O)(=O)NNC(=O)c1ccc2oc3ccccc3c2c1 [Example 19, Dibenzofuran-2-carboxylic acid 2-(3-chloro-2-methyl-phenylsulfonyl)hydrazide]
24.6 µM | 229.4 to 230.5 | 4.1 µM | O=C(NNS(=O)(=O)c1ccc(F)cc1)c1cc2cc(Cl)ccc2o1 [Example 22, 2-Benzofurancarboxylic acid, 5-chloro-2-[(4-fluorophenyl)]sulfonyl hydrazide]
17.8 µM | 182.7 to 183.3 | 5.4 µM | COc1cccc2cc(C(=O)NNS(=O)(=O)c3ccc(F)cc3)oc12 [Example 23, 2-Benzofurancarboxylic acid, 7-methoxy-, 2-[(4-fluoro-phenyl)sulfonyl]hydrazide]
24 µM | 206.3 to 207 | 1.2 µM | O=C(NNS(=O)(=O)c1ccc(F)cc1)c1ccc2oc3ccccc3c2c1 [Example 24, 2-Dibenzofurancarboxylic acid 2-[(4-fluorophenyl)sulfonyl]hydrazide]
21.9 µM | 227.5 to 227.8 | 1.8 µM | O=C(NNS(=O)(=O)c1ccc(F)cc1Cl)c1ccc2oc3ccccc3c2c1 [Example 25, 2-Dibenzofurancarboxylic acid 2-[(2-chloro-4-fluorophenyl)sulfonyl]hydrazide]
138 µM | 234 to 236 | 15.2 µM and 6.9 µM | N#Cc1cccc(S(=O)(=O)NNC(=O)c2ccc3oc4ccccc4c3c2)c1 [Example 26, 2-Dibenzofurancarboxylic acid 2-[(3-cyanophenyl)sulfonyl]hydrazide]
171 µM | 208.5 to 210 | 45.2 µM | N#Cc1cccc(S(=O)(=O)NNC(=O)c2cc3cc(Cl)ccc3o2)c1 [Example 27, 2-Benzofurancarboxylic acid, 5-chloro-, 2-[(3-cyanophenyl)sulfonyl]hydrazide]
25 µM | 204.6 to 206.2 | 5.7 µM | O=C(NNS(=O)(=O)c1ccc(F)cc1Cl)c1cc2cc(Cl)ccc2o1 [Example 30, 2-Benzofurancarboxylic acid, 5-chloro-, 2-[(2-chloro-4-fluorophenyl)sulfonyl]-hydrazide]
2.6 µM and 4.3 µM | 242.5 to 243.3 | 0.81 µM | O=C(NNS(=O)(=O)c1cc(Cl)cc(Cl)c1)c1cc2cc(Cl)ccc2o1 [Example 31, 2-Benzofurancarboxylic acid, 5-chloro-, 2-[(3,5-dichlorophenyl)sulfonyl]-hydrazide]
> 100 µM | 244.7 to 245.5 | > 100 µM | O=C(NNS(=O)(=O)c1cc(C(F)(F)F)cc(C(F)(F)F)c1)c1ccc2oc3ccccc3c2c1 [Example 32, 2-Dibenzofurancarboxylic acid, 2-[[3,5-bis(trifluoromethyl)phenyl]sulfonyl]-hydrazide]
3.57 µM | 222.6 to 223.3 | 0.31 µM | O=C(NNS(=O)(=O)c1cccc(F)c1)c1ccc2oc3ccccc3c2c1 [Example 35, 2-Dibenzofurancarboxylic acid 2-[(3-fluorophenyl)sulfonyl]hydrazide]
17.5 µM and 18.2 µM | 210.1 to 210.5 | 1.1 µM | Cc1ccc(F)cc1S(=O)(=O)NNC(=O)c1ccc2oc3ccccc3c2c1 [Example 36, 2-Dibenzofurancarboxylic acid 2-[(5-fluoro-2-methylphenyl)sulfonyl]hydrazide]
41.3 µM | 210.1 to 210.5 | 3.5 µM | O=C(NNS(=O)(=O)c1ccc(F)c(F)c1)c1ccc2oc3ccccc3c2c1 [Example 37, 2-Dibenzofurancarboxylic acid 2-[(3,4-difluorophenyl)sulfonyl]hydrazide]
29.9 µM | 210.8 to 211.6 | 0.77 µM and 0.61 µM | O=C(NNS(=O)(=O)c1ccc(F)c(Cl)c1)c1ccc2oc3ccccc3c2c1 [Example 38, 2-Dibenzofurancarboxylic acid 2-[(3-chloro-4-fluorophenyl)sulfonyl]hydrazide]
2.29 µM | 199.5 to 200.5 | 0.21 µM | COc1cccc(S(=O)(=O)NNC(=O)c2ccc3oc4ccccc4c3c2)c1 [Example 39, 2-Dibenzofurancarboxylic acid 2-[(3-methoxyphenyl)sulfonyl]hydrazide]
4.86 µM and 8.8 µM | 174.4 to 174.7 | 1 µM | O=C(NNS(=O)(=O)c1cccc(F)c1)c1cc2cc(Cl)ccc2o1 [Example 40, 2-Benzofurancarboxylic acid, 5-chloro-2-[(3-fluorophenyl)sulfonyl]hydrazide]
28.8 µM | 193.8 to 195 | 14.5 µM | O=C(NNS(=O)(=O)c1ccc(F)c(F)c1)c1cc2cc(Cl)ccc2o1 [Example 41, 2-Benzofurancarboxylic acid, 5-chloro-2-[(3,4-difluorophenyl)sulfonyl]hydrazide]
5.3 µM and 10.4 µM | 200.3 to 200.5 | 1.3 µM | O=C(NNS(=O)(=O)c1ccccc1Cl)c1cc2cc(Cl)ccc2o1 [Example 42, 2-Benzofurancarboxylic acid, 5-chloro-2-[(2-chlorophenyl)sulfonyl]hydrazide]
1.8 µM | 202.9 to 205.2 | 0.47 µM | O=C(NNS(=O)(=O)c1cccc(Cl)c1)c1cc2cc(Cl)ccc2o1 [Example 43, 2-Benzofurancarboxylic acid, 5-chloro-2-[(3-chlorophenyl)sulfonyl]hydrazide]
2.29 µM | 218.1 to 220 | 0.21 µM | O=C(NNS(=O)(=O)c1cccc(Br)c1)c1cc2cc(Cl)ccc2o1 [Example 45, 2-Benzofurancarboxylic acid, 5-chloro-2-[(3-bromophenyl)sulfonyl]hydrazide]
0.84 µM and 1.47 µM | 201.2 to 201.6 | 0.15 µM and 0.2 µM | Cc1cccc(S(=O)(=O)NNC(=O)c2cc3cc(Cl)ccc3o2)c1 [Example 47, 2-Benzofurancarboxylic acid, 5-chloro-2-[(3-methylphenyl)sulfonyl]hydrazide]
4.21 µM and 7.6 µM | 204.3 to 204.6 | 0.91 µM | COc1cccc(S(=O)(=O)NNC(=O)c2cc3cc(Cl)ccc3o2)c1 [Example 48, 2-Benzofurancarboxylic acid, 5-chloro-2-[(3-methoxyphenyl)sulfonyl]hydrazide]
24.2 µM | – | 3.6 µM | O=C(NNS(=O)(=O)c1ccccc1)c1cnc2ccccc2c1 [Example 154, Quinoline-3-carboxylic acid 2-(phenylsulfonyl)hydrazide]
